Laboratory results as given in patent publication US8178522B2, “Thiazoles” (Hoffmann-La Roche Inc., priority 2009, dated 2012).
pKi: −log10 of the molar value. Where two headings read alike, the source gives them in different places.

Biological target: T1, GABA A α5 (α5β3γ2) (Homo sapiens, UniProt P18507+P31644)
T1 construct: expressed in transfected cells; host or cells: HEK293, transiently transfected; membrane preparation
Assay: [3H]flumazenil competition binding, human GABA A α5 receptor
Protocol: Membrane Preparation and Binding Assay
The affinity of compounds at GABA A receptor subtypes was measured by competition for [3H]flumazenil (85 Ci/mmol; Roche) binding to HEK293 cells expressing rat (stably transfected) or human (transiently transfected) receptors of compositional α1β3γ2, α2β3γ2, α3β3γ2 and α5β3γ2.
Cell pellets were suspended in Krebs-tris buffer (4.8 mM KCl, 1.2 mM CaCl2, 1.2 mM MgCl2, 120 mM NaCl, 15 mM Tris; pH 7.5; binding assay buffer), homogenized by polytron for ca. 20 sec on ice and centrifuged for 60 min at 4° C. (50000 g; Sorvall, rotor: SM24=20000 rpm). The cell pellets were re-suspended in Krebs-tris buffer and homogenized by polytron for ca. 15 sec on ice. Protein was measured (Bradford method, Bio-Rad) and aliquots of 1 mL were prepared and stored at −80° C.
Assays were incubated to equilibrium for 1 hour at 4° C. and harvested onto GF/C uni-filters (Packard) by filtration using a Packard harvester and washing with ice-cold wash buffer (50 mM Tris; pH 7.5). After drying, filter-retained radioactivity was detected by liquid scintillation counting. Ki values were calculated using Excel-Fit (Microsoft) and are the means of two determinations.

[1] = human receptor α5β3γ2 transiently transfected in HEK293 cells, competition for [3H]flumazenil 0.5 nM, 1 hour at 4° C., means of two determinations, read-out: hKi GABA A α5

Row | Compound | pKi [1] | pKi
1 | Cc1onc(-c2ccc(F)cn2)c1/C=C/c1ncc(C(=O)NCC2CC2)s1 [Example 82, 2-{(E)-2-[3-(5-Fluoro-pyridin-2-yl)-5-methyl-isoxazol-4-yl]-vinyl}-thiazole-5-carboxylic acid cyclopropylmethyl-amide] | 8.33 | –
2 | Cc1onc(-c2ccccc2)c1/C=C/c1ncc(C(=O)NCCO)s1 [Example 67, 2-[(E)-2-(5-Methyl-3-phenyl-isoxazol-4-yl)-vinyl]-thiazole-5-carboxylic acid (2-hydroxy-ethyl)-amide] | 8.55 | –
3 | Cc1nc(/C=C/c2c(-c3ccc(F)cn3)noc2C)sc1C(=O)NC1CCOCC1 [Example 72, 2-{(E)-2-[3-(5-Fluoro-pyridin-2-yl)-5-methyl-isoxazol-4-yl]-vinyl}-4-methyl-thiazole-5-carboxylic acid (tetrahydro-pyran-4-yl)-amide] | 9.22 | –
4 | COC(=O)c1sc(CCc2c(-c3ccccn3)noc2C)nc1C [Example 8, 4-Methyl-2-[2-(5-methyl-3-pyridin-2-yl-isoxazol-4-yl)-ethyl]-thiazole-5-carboxylic acid methyl ester] | 7.69 | –
5 | CCCCc1noc(C)c1/C=C/c1nc(C)c(C(=O)NN2CCOCC2)s1 [Example 103, 2-[(E)-2-(3-Butyl-5-methyl-isoxazol-4-yl)-vinyl]-4-methyl-thiazole-5-carboxylic acid morpholin-4-ylamide] | 8.74 | –
6 | Cc1nc(CCc2c(-c3ccccn3)noc2C)sc1C(=O)NC1CCOCC1 [Example 9, 4-Methyl-2-[2-(5-methyl-3-pyridin-2-yl-isoxazol-4-yl)-ethyl]-thiazole-5-carboxylic acid (tetrahydro-pyran-4-yl)-amide] | 8.24 | –
7 | Cc1nc(CCc2c(-c3ccc(F)cn3)noc2C)sc1C(=O)NCC(F)(F)F [Example 35, 2-{2-[3-(5-Fluoro-pyridin-2-yl)-5-methyl-isoxazol-4-yl]ethyl}-4-methyl-thiazole-5-carboxylic acid (2,2,2-trifluoro-ethyl)-amide] | 8.18 | –
8 | Cc1nc(CCc2c(-c3ccccn3)noc2C)sc1C(N)=O [Example 18, 4-Methyl-2-[2-(5-methyl-3-pyridin-2-yl-isoxazol-4-yl)-ethyl]-thiazole-5-carboxylic acid amide] | 7.49 | –
9 | CCCCc1noc(C)c1/C=C/c1nc(C)c(C(=O)NC(CO)CO)s1 [Example 98, 2-[(E)-2-(3-Butyl-5-methyl-isoxazol-4-yl)-vinyl]-4-methyl-thiazole-5-carboxylic acid (2-hydroxy-1-hydroxymethyl-ethyl)-amide] | 8.72 | –
10 | COC(=O)c1cnc(CCc2c(-c3ccccn3)noc2C)s1 [Example 21, 2-[2-(5-Methyl-3-pyridin-2-yl-isoxazol-4-yl)-ethyl]-thiazole-5-carboxylic acid methyl ester] | 7.40 | –
11 | CCNC(=O)c1sc(CCc2c(-c3ccc(F)cn3)noc2C)nc1C [Example 38, 2-{2-[3-(5-Fluoro-pyridin-2-yl)-5-methyl-isoxazol-4-yl]-ethyl}-4-methyl-thiazole-5-carboxylic acid ethylamide] | 7.97 | –
12 | CCCCc1noc(C)c1CCc1nc(C)c(C(=O)N[C@H](C)CO)s1 [Example 55, 2-[2-(3-Butyl-5-methyl-isoxazol-4-yl)-ethyl]-4-methyl-thiazole-5-carboxylic acid ((R)-2-hydroxy-1-methyl-ethyl)-amide] | 7.45 | –
13 | CCCCc1noc(C)c1/C=C/c1nc(C)c(C(=O)NC(C)(C)CO)s1 [Example 117, 2-[(E)-2-(3-Butyl-5-methyl-isoxazol-4-yl)-vinyl]-4-methyl-thiazole-5-carboxylic acid (2-hydroxy-1,1-dimethyl-ethyl)-amide] | 7.68 | –
14 | CCCCc1noc(C)c1COc1ncc(C(=O)NCCO)s1 [Example 134, 2-(3-Butyl-5-methyl-isoxazol-4-ylmethoxy)-thiazole-5-carboxylic acid (2-hydroxy-ethyl)-amide] | 7.67 | –
15 | CCCCc1noc(C)c1/C=C/c1nc(C)c(C(=O)NN(C)C)s1 [Example 102, 2-[(E)-2-(3-Butyl-5-methyl-isoxazol-4-yl)-vinyl]-4-methyl-thiazole-5-carboxylic acid N′,N′-dimethyl-hydrazide] | 8.36 | –
16 | CCCCc1noc(C)c1/C=C/c1nc(C)c(C(=O)NCC)s1 [Example 121, 2-[(E)-2-(3-Butyl-5-methyl-isoxazol-4-yl)-vinyl]-4-methyl-thiazole-5-carboxylic acid ethylamide] | 8.30 | –
17 | Cc1nc(CCc2c(-c3ccccn3)noc2C)sc1C(=O)N1CCSCC1 [Example 17, {4-Methyl-2-[2-(5-methyl-3-pyridin-2-yl-isoxazol-4-yl)-ethyl]-thiazol-5-yl}-thiomorpholin-4-yl-methanone] | 7.37 | –
18 | Cc1onc(-c2ccc(F)cn2)c1CCc1ncc(C(=O)NC2CCOCC2)s1 [Example 40, 2-{2-[3-(5-Fluoro-pyridin-2-yl)-5-methyl-isoxazol-4-yl]-ethyl}-thiazole-5-carboxylic acid (tetrahydro-pyran-4-yl)-amide] | 7.88 | –
19 | CCCCc1noc(C)c1/C=C/c1nc(C)c(C(=O)NC)s1 [Example 122, 2-[(E)-2-(3-Butyl-5-methyl-isoxazol-4-yl)-vinyl]-4-methyl-thiazole-5-carboxylic acid methylamide] | 8.24 | –
20 | Cc1onc(-c2ccccc2)c1/C=C/c1ncc(C(=O)NC2CCOCC2)s1 [Example 63, 2-[(E)-2-(5-Methyl-3-phenyl-isoxazol-4-yl)-vinyl]-thiazole-5-carboxylic acid (tetra-hydro-pyran-4-yl)-amide] | 8.92 | –
21 | Cc1nc(CCc2c(-c3ccccc3)noc2C)sc1C(=O)NC1CCOC1 (stereo in doubt) [Example 2, (S)-4-Methyl-2-[2-(5-methyl-3-phenyl-isoxazol-4-yl)-ethyl]-thiazole-5-carboxylic acid (tetrahydro-furan-3-yl)-amide] | 7.96 | –
22 | Cc1onc(-c2ccc(F)cn2)c1/C=C/c1ncc(C(=O)NC2CC2)s1 [Example 79, 2-{(E)-2-[3-(5-Fluoro-pyridin-2-yl)-5-methyl-isoxazol-4-yl]-vinyl}-thiazole-5-carboxylic acid cyclopropylamide] | – | 8.39
23 | CCCCc1noc(C)c1COc1ncc(C(=O)NC(C)C)s1 [Example 132, 2-(3-Butyl-5-methyl-isoxazol-4-ylmethoxy)-thiazole-5-carboxylic acid isopropylamide] | 7.99 | –
24 | Cc1onc(-c2ccccn2)c1CCc1ncc(C(=O)NCC2CC2)s1 [Example 26, 2-[2-(5-Methyl-3-pyridin-2-yl-isoxazol-4-yl)-ethyl]-thiazole-5-carboxylic acid cyclo-propylmethyl-amide] | 7.46 | –
25 | CCCCc1noc(C)c1CCc1nc(C)c(C(=O)NCC(C)(C)O)s1 [Example 49, 2-[2-(3-Butyl-5-methyl-isoxazol-4-yl)-ethyl]-4-methyl-thiazole-5-carboxylic acid (2-hydroxy-2-methyl-propyl)-amide] | 7.36 | –
26 | Cc1nc(/C=C/c2c(-c3ccc(F)cn3)noc2C)sc1C(N)=O [Example 76, 2-{(E)-2-[3-(5-Fluoro-pyridin-2-yl)-5-methyl-isoxazol-4-yl]-vinyl}-4-methyl-thiazole-5-carboxylic acid amide] | 8.39 | –
27 | CCNC(=O)c1cnc(/C=C/c2c(-c3ccc(F)cn3)noc2C)s1 [Example 87, 2-{(E)-2-[3-(5-Fluoro-pyridin-2-yl)-5-methyl-isoxazol-4-yl]-vinyl}-thiazole-5-carboxylic acid ethylamide] | 8.40 | –
